The subject of test [1] is histamine-induced scratching behavior. As to the kind of experiment: Antipruritic activity in histamine-induced scratching model, dose response (Experiment 3 (1)). In kind it is in vivo, mouse. As to the method: (1) [Antipruritic Activity of Test Compound in Histamine-Induced Scratching Model]
After topical administration of a solution (50 μL) of test compound (0.3 to 3% w/v solution of Compound A in acetone, or 0.03 to 0.3% w/v solution of cipamfylline in acetone), or a vehicle (acetone; 50 μL) onto right dorsal neck of ICR female mice similarly pre-treated as described in Experiment 1, these animals were placed into a testing apparatus (MicroAct). After one hour of the administration of said test compound solution or vehicle, a solution (50 μL) of histamine in saline (300 nmol/50 μL) or saline (50 μL; control group) was intradermally administered to right dorsal neck of each mouse. Immediately after the administration, scratching behavior (counts of scratching) was measured for 30 minutes by the testing apparatus (MicroAct).

Test [2] concerns oxazolone-induced scratching behavior. Briefly: Chronic oxazolone-induced dermatitis model: scratching behavior (Experiment 4). In kind it is in vivo, mouse. The settings on record: for Counts of scratching (Mean ± standard error): Compound A 1%, Tacrolimus 0.1%, Dexamethasone 0.01% w/v in 0.25% oxazolone. The procedure: [Antipruritic Effect of Test Compound in Chronic Oxazolone-Induced Dermatitis Model]
A magnet for measurement was implanted into an instep part of right hindlimb of BALB/c male mouse (fed for one week from five-week old; Charles River Laboratories, Japan Inc.) under anesthesia, and on the same day, sensitization was carried out by topically administering 0.5% w/v solution (10 μL) of oxazolone in acetone respectively onto the both sides of right ear auricle of the animal (sensitization day). On each point of the 7th, 9th, 11th, 14th and 16th day reckoned from the day after the sensitization (1st day), each mouse was challenged by topical administration of a 10 μL solution of test compound [acetone (vehicle-treated group), 0.25% w/v solution of oxazolone in acetone (oxazolone-treated group), or a test compound solubilized in 0.25% w/v oxazolone solution in acetone (test compound-treated group)] onto the both sides of right ear auricle of the animal to produce inflammatory reactions. Immediately after the administration, scratching behavior (counts of scratching) was measured for two hours by MicroAct. Thickness of right ear auricle of each mouse was measured by a thickness gauge before and 24 hours after the topical administration of each test compound solution. The percentage described in the Table means “% w/v”.

Regarding `COc1cc2cc(CO)c(CO)c(-c3ccnc(N4CC[C@H](O)c5ccccc54)c3)c2cc1OC` [Compound A, 1-[2-(4S)-4-hydroxy-1,2,3,4-tetrahydroquinolin-1-yl]-4-pyridyl]-2,3-bis(dihydroxymethyl)-6,7-dimethoxynaphthalene sesquihydrate], the figures for the “Counts of scratching (Mean)” value in test [1] (0.3% w/v in acetone 50 μL topical 1 h before histamine 300 nmol/50 μL), in test [1] (1% w/v in acetone 50 μL topical 1 h before histamine 300 nmol/50 μL) and in test [1] (3% w/v in acetone 50 μL topical 1 h before histamine 300 nmol/50 μL) were 634 beats/30 min, 611 beats/30 min and 314 beats/30 min, respectively. For the same compound, the “Counts of scratching (Mean ± standard error)” value in test [2] (7th day, BALB/c male mouse) is recorded as 931 ± 135 (**) beats/2 hr; in test [2] (9th day), 664 ± 99 (**) beats/2 hr; in test [2] (11th day) it was 577 ± 77 (*) beats/2 hr; in test [2] (14th day), 863 ± 122 (**) beats/2 hr; in test [2] (16th day), 959 ± 166 (*) beats/2 hr. Moreover, in test [2] (16th day), the “inhibitory effect on the counts of scratching (antipruritic effect), result in words” value is on record as “inhibitory effect on the counts of scratching”.

Source of the values: patent publication US20140121240A1, “NOVEL PHARMACEUTICAL COMPOSITION” (MARUHO CO., LTD., priority 2011, published 2014).
